Experimental data from patent US7141676B1, “Water soluble multi-biotin-containing compounds” (University of Washington, priority 1996, dated 2006).

Tests used:
streptavidin = molecular target: T1, streptavidin (Streptomyces avidinii, UniProt P22629); assay: Streptavidin cross-linking with biotin compounds on streptavidin coated polystyrene plate using 125I labeled streptavidin (Example 7); type: binding; settings: 100 pmol biotin compound, 25 pmol 125I streptavidin per well, up to 4 alternating additions
T1 construct: purchased Pierce
T1 sequence (P22629 25-183, species assumed): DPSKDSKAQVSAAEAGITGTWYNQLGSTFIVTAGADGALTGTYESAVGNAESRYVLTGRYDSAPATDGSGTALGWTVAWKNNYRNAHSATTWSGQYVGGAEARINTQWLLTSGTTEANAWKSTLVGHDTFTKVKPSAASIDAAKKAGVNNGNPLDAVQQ
Source text: This experiment was designed to test streptavidin cross-linking with biotin monomer, biotin dimers comprising water-soluble linkers, and biotin moiety trimers comprising water-soluble linkers. Each of the biotin dimers and trimers used experimentally was water-soluble. […] The biotin dimers used herein are structures 28, 29, and 30. The trimers used herein are structures 23 (page 26), 24 (page 26), and 31. The biotin monomer used herein is the N-[13-(p-iodobenzamido)4,7,10-trioxatridacanyl]biotinamide.
A Reacti-Bind Streptavidin Coated Polystyrene Strip Place (Pierce) was washed with 100 mM PBS prior to use. To lane one (12-wells) was added 100 μL PBS. To lanes 2–7 were added 100 pmol of biotin dimer or biotin trimer to be tested in 100 μL PBS. Lane 8 was treated in the same manner with 100 pmol of biotin monomer. The plate then was incubated at 37° C. with shaking for 10 minutes. All the wells then were emptied and rinsed with 100 μL PBS. The PBS was removed and 25 pmol of ^125I labeled streptavidin (specific activity of 1 μCi/ug) in 100 μL PBS was added to each well. […]
The first 9 wells in each lane were then filled with 100 μL PBS and the remaining 3 wells in each lane were filled with 100 μL of their respective dimer or trimer. […] The amount of activity remaining in each well was determined as a percentage of the highest initial streptavidin binding.

[1] = neutral pH and ambient temperature; cited from earlier work
[2] = Water solubility (dissolve in water, stand about 24 hours, centrifuge, HPLC of aqueous layer); type: physicochemical; settings: pH 7, water, thermodynamic from solid, neutral pH and ambient temperature
Source text: The solubility of biotin moieties in aqueous media is enhanced according to the present invention by attaching a water-soluble linker moiety, typically through the carboxylate group of the biotin. Water-soluble linker moieties, L, according to the present invention, compromise any linker moiety that, when conjugated or coupled (e.g., covalently bonded) to a biotin moiety and the cross-linker, C, increases the water solubility of the biotin-containing compound. […] Dissolving the compound in water, stirring the solution, and allowing the solution to stand at room temperature for about 24 hours determines solubility. The solution then is centrifuged and the resultant aqueous layer analyzed using high performance liquid chromatography (“HPLC”). The HPLC analysis is conducted with a gradient using acetonitrile or methanol and water as the solvent mixture on a reversed-phase column.

Structure (SMILES) | solubility [2] [µg/mL] | further results
O=C(CCCC[C@@H]1SC[C@@H]2NC(=O)N[C@@H]21)NCCCOCCOCCOCCCNC(=O)c1ccc(I)cc1 [biotin monomer, N-[13-(p-iodobenzamido)4,7,10-trioxatridacanyl]biotinamide] | – | streptavidin binding as a function of sequential biotin compound additions (FIG. 1) (streptavidin): Neither the biotin monomer nor any of the biotin dimers tested demonstrated appreciable increases in streptavidin binding
O=C(O)CCCC[C@@H]1SC[C@@H]2NC(=O)N[C@@H]21 [biotin] | – | solubility in water [1]: approximately 0.2 mg/mL
O=C(CCCCC1SCC2NC(=O)NC21)NCCCOCCOCCOCCCNC(=O)c1cc(C(=O)NCCCOCCOCCOCCCNC(=O)CCCCC2SCC3NC(=O)NC32)cc(C(=O)NCCCOCCOCCOCCCNC(=O)CCCCC2SCC3NC(=O)NC32)c1 (centres unmarked) [structure 23] | > 200 | –
O=C(CCCCC1SCC2NC(=O)NC21)NCCCOCCOCCOCCNC(=O)c1cc(C(=O)NCCOCCOCCNC(=O)CCCCC2SCC3NC(=O)NC32)cc(C(=O)NCCOCCOCCNC(=O)CCCCC2SCC3NC(=O)NC32)c1 (centres unmarked) [structure 24] | > 200 | –
O=C(CCCCC1SCC2NC(=O)NC21)NCCOCCONC(=O)CCCCC1SCC2NC(=O)NC21 (centres unmarked) [structure 28] | > 200 | –
O=C(CCCCC1SCC2NC(=O)NC21)NCCCOCCOCCOCCCNC(=O)CCCCC1SCC2NC(=O)NC21 (centres unmarked) [structure 29] | > 200 | –
CC(CC(=O)NCCCOCCOCCOCCCNC(=O)CC(C)NC(=O)CCCCC1SCC2NC(=O)NC21)NC(=O)CCCCC1SCC2NC(=O)NC21 (centres unmarked) [structure 30] | > 200 | –
CC(CC(=O)NCCCOCCOCCOCCCNC(=O)c1cc(C(=O)NCCCOCCOCCOCCCNC(=O)CC(C)NC(=O)CCCCC2SCC3NC(=O)NC32)cc(C(=O)NCCCOCCOCCOCCCNC(=O)CC(C)NC(=O)CCCCC2SCC3NC(=O)NC32)c1)NC(=O)CCCCC1SCC2NC(=O)NC21 (centres unmarked) [structure 31] | > 200 | –
